Measured values from patent publication US8895570B2, “Purine derivatives” (AstraZeneca AB, priority 2010, dated 2014).

Key:
human TLR7 = target: T1, human TLR7 (Homo sapiens, UniProt Q9NYK1); assay: Human TLR7 assay (SEAP reporter in HEK293 cells); format: cell-based; settings: HEK293 cells expressing recombinant human TLR7, overnight incubation at 37° C., 0.1% DMSO; read-out: mean pEC50 (SEAP induction) (converted)
T1 construct: expressed in transfected cells; host or cells: HEK293 stably expressing pNiFty2-SEAP reporter; TLR7 in pUNO vector
T1 sequence (Q9NYK1 27-1049): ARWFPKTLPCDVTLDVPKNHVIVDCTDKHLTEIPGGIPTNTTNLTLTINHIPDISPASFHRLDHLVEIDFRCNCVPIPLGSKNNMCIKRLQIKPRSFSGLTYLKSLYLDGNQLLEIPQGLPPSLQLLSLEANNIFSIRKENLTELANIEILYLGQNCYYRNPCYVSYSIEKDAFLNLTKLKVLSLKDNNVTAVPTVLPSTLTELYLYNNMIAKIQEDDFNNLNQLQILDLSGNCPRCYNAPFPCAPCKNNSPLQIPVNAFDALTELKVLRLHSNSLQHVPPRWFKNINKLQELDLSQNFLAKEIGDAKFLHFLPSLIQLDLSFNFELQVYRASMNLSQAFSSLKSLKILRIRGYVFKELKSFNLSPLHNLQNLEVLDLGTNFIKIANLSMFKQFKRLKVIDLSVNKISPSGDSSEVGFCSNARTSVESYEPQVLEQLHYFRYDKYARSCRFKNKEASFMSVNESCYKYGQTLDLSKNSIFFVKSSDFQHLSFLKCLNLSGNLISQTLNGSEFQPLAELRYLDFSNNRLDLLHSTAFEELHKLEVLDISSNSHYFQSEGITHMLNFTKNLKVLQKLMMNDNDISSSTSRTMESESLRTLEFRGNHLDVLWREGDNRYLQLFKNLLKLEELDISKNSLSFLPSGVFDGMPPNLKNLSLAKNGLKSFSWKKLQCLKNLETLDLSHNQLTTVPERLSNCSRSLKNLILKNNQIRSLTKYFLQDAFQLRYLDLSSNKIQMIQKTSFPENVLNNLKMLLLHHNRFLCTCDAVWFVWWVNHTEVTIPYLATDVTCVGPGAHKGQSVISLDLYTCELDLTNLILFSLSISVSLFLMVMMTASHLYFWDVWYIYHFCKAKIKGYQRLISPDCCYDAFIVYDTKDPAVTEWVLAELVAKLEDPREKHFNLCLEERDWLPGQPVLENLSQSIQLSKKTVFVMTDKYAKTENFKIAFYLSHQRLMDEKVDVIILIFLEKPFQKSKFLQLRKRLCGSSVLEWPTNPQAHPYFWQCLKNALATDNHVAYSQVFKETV
Source text: Recombinant human TLR7 was stably expressed in a HEK293 cell line already stably expressing the pNiFty2-SEAP reporter plasmid; integration of the reporter gene was maintained by selection with the antibiotic zeocin. The most common variant sequence of human TLR7 (represented by the EMBL sequence AF240467) was cloned into the mammalian cell expression vector pUNO and transfected into this reporter cell-line. Transfectants with stable expression were selected using the antibiotic blasticidin. In this reporter cell-line, expression of secreted alkaline phosphatase (SEAP) is controlled by an NFkB/ELAM-1 composite promoter comprising five NFkB sites combined with the proximal ELAM-1 promoter. TLR signaling leads to the translocation of NFkB and activation of the promoter results in expression of the SEAP gene. TLR7-specific activation was assessed by determining the level of SEAP produced following overnight incubation of the cells at 37° C. with the standard compound in the presence of 0.1% (v/v) dimethylsulfoxide (DMSO). […] Human Skin Cytokine Production

[1] = Maximal solubility in phosphate citrate buffer pH 3.0; format: physicochemical
CYP1A2 = target: T2, CYP1A2 (Homo sapiens, UniProt P05177); assay: CYP inhibition; format: in vitro ADME; settings: expressed in E. coli membranes, substrate phenacetin, LC-MS-MS; read-out: Mean pIC50 CYP1A2 (converted)
T2 construct: made in house; host or cells: E. coli (membranes)
T2 sequence (P05177 1-516): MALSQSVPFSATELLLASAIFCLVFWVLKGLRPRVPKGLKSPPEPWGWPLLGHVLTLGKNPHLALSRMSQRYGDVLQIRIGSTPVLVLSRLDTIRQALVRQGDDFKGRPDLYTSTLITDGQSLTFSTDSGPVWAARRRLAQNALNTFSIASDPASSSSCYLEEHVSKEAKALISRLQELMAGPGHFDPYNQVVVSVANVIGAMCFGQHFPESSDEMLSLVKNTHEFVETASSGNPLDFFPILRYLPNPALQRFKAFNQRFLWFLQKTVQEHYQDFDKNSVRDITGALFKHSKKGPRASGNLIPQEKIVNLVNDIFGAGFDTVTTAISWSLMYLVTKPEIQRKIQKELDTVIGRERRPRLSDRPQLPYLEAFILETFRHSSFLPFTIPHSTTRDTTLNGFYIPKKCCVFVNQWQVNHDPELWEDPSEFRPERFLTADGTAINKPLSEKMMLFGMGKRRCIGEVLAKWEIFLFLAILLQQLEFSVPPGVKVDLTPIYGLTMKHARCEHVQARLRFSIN
Procedure: (§1) The five major human hepatic Cytochrome P450 isoforms, 1A2, 2C9, 2C19, 2D6 and 3A4 were heterologously expressed in E. coli membranes. Each of the five CYPs were incubated with a cocktail of specific substrates; phenacetin, diclofenac, 5-mephenyloin, bufuralol and midazolam, which are predominantly metabolised by CYP 1A2, 2C9, 2C19, 2D6 and 3A4 respectively plus the test compound.
(§2) The substrates were incubated, at concentrations equivalent to their respective Km values, and LC-MS-MS (MRM mode) was used in order to follow the formation of their specific metabolites. The ability of the test compound to inhibit the CYP isoforms was determined by following any decrease in the amount of the specific metabolites formed at six different inhibitor concentrations.
(§3) The rates of reaction were calculated by measuring MS/MS area units and data analysis was performed by linearising the data using a pseudo Hill plot. The IC50 ie the concentration of the test compound that decreases the amount of metabolite formed by 50% was determined.

CYP3A4 = target: T3, CYP3A4 (Homo sapiens, UniProt P08684); assay: CYP inhibition; format: in vitro ADME; settings: expressed in E. coli membranes, substrate midazolam, LC-MS-MS; read-out: Mean pIC50 CYP3A4 (converted)
T3 construct: made in house; host or cells: E. coli (membranes)
T3 sequence (P08684 whole entry): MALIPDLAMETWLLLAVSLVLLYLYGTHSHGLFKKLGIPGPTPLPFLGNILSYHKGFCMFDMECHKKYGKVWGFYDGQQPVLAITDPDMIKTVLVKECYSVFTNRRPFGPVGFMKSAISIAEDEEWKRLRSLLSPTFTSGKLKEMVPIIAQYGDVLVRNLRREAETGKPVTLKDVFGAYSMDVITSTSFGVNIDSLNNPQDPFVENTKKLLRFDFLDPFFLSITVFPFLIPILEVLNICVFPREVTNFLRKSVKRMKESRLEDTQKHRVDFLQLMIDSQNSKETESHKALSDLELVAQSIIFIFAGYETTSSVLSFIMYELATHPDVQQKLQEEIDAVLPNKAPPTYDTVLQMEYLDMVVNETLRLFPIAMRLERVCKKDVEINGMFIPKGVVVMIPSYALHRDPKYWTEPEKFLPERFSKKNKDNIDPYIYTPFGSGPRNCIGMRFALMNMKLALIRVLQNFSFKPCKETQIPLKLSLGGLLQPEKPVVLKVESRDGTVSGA
Procedure: as §1, §2, §3

CYP2D6 = target: T4, CYP2D6 (Homo sapiens, UniProt P10635); assay: CYP inhibition; format: in vitro ADME; settings: expressed in E. coli membranes, substrate bufuralol, LC-MS-MS; read-out: Mean pIC50 CYP2D6 (converted)
T4 construct: made in house; host or cells: E. coli (membranes)
T4 sequence (P10635 whole entry): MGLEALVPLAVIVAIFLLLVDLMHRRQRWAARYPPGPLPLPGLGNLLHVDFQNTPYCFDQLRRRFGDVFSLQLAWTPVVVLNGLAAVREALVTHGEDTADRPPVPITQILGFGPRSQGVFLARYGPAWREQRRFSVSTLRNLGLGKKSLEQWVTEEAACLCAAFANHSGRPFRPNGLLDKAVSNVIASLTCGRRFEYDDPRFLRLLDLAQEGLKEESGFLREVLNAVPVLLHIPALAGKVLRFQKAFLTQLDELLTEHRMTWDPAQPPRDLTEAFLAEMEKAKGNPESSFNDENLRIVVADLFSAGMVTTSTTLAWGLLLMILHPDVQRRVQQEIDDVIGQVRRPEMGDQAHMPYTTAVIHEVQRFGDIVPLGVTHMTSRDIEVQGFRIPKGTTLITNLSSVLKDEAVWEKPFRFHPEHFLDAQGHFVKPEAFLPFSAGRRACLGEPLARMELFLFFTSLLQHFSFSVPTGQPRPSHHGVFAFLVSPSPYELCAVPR
Procedure: as §1, §2, §3

CYP2C19 = target: T5, CYP2C19 (Homo sapiens, UniProt P33261); assay: CYP inhibition; format: in vitro ADME; settings: expressed in E. coli membranes, substrate 5-mephenyloin, LC-MS-MS; read-out: Mean pIC50 CYP2C19 (converted)
T5 construct: made in house; host or cells: E. coli (membranes)
T5 sequence (P33261 whole entry): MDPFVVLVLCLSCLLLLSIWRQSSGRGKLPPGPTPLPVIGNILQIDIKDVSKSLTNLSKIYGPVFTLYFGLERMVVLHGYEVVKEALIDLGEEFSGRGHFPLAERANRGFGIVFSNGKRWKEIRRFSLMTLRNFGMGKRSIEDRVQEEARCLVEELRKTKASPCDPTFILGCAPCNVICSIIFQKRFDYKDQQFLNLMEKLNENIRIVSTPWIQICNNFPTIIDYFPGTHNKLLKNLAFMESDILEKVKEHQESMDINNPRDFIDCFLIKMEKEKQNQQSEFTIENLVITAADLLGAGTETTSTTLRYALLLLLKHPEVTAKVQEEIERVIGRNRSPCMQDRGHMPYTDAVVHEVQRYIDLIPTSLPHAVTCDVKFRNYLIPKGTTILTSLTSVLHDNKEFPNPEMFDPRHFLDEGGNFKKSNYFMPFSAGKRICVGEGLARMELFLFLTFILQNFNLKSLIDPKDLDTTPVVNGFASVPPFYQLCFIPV
Procedure: as §1, §2, §3

CYP2C9 = target: T6, CYP2C9 (Homo sapiens, UniProt P11712); assay: CYP inhibition; format: in vitro ADME; settings: expressed in E. coli membranes, substrate diclofenac, LC-MS-MS; read-out: Mean pIC50 CYP2C9 (converted)
T6 construct: made in house; host or cells: E. coli (membranes)
T6 sequence (P11712 whole entry): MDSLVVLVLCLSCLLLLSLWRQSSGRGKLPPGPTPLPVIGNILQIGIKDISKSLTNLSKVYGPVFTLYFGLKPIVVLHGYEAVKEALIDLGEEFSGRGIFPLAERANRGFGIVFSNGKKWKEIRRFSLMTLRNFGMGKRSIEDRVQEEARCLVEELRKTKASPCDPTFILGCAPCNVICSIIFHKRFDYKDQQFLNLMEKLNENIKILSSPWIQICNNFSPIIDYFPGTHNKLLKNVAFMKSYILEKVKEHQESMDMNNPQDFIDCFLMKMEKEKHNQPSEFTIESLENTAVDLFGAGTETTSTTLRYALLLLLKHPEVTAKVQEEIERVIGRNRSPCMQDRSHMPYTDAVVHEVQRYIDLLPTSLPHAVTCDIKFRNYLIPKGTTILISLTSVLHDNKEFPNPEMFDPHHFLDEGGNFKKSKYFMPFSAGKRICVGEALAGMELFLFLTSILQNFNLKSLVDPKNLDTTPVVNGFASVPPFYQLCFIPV
Procedure: as §1, §2, §3

[2] = test system: interleukin-13 (IL-13) production in human skin biopsies; assay: Human skin cytokine production (PHA-induced IL-13 in skin biopsies); format: cell-based; settings: PHA-stimulated human skin biopsies, 24 hours
Procedure: Normal human skin biopsies were obtained, with informed consent, from healthy patients undergoing surgical cosmetic procedures. 3 mm full thickness skin biopsies were taken using a biopsy punch. A hole was cut in a Transwell filter (pore size 0.4 μm) using a punch and the skin biopsy inserted in the hole. The filter containing the biopsy was placed in the well of a 24-well culture plate containing 1.25 ml of culture medium (RPMI containing 1% heat-inactivated human serum) with the epidermis facing upwards at the liquid-air interface. Culture plates containing the biopsies were incubated at 37° C., in an atmosphere of 5% CO2 in air, for 24 hours. Biopsies were cultured in the absence or presence of phytohaemagglutinin (PHA) (1 mg/ml) added to the culture medium to induce a cytokine response in the tissue.

Human plasma stability = format: in vitro ADME; settings: 37° C.
Procedure: To determine the half life of the test compound in human plasma, incubations were performed at 37° C. in a shaking water bath. Compound (5 μl of 100 μM stock in MeCN) was spiked into 0.495 mL plasma to give final incubation concentration of 1 μM. Aliquots (50 μl) were withdrawn at various time points (typically 0, 20 & 40 sec, 1, 2, 3, 5 & 10 mins) and quenched into MeCN ([…]) followed by analysis for parent compound by LC-MS-MS (MRM mode). The half life was calculated from the decline of test compound peak area over time. • Example 1 (Compound (I)) gave a half life of 0.6 minutes (n=1). • Comparative Example 1 gave a half life of 0.2 minutes (n=1).

[3] = compound applied topically at 1/10 max. solubility
[4] = compound applied topically at max. solubility

Row | SMILES | EC50 (human TLR7) [µM] | maximal solubility in phosphate citrate buffer pH 3.0 [1] | IC50 (CYP1A2) [µM] | IC50 (CYP3A4) [µM] | IC50 (CYP2D6) [µM] | IC50 (CYP2C19) [µM] | IC50 (CYP2C9) [µM] | % Inhibition of response [2, 3] [%] | IL-13 (pg/ml) Mean ± SEM [2, 3] [pg/mL] | % Inhibition of response [2, 4] [%] | IL-13 (pg/ml) Mean ± SEM [2, 4] [pg/mL] | half-life at 1 μM (Human plasma stability) [s]
1 | CCCCOc1nc(N)c2[nH]c(=O)n(CCCN(CCCN3CCCCC3)Cc3ccc(CC(=O)OC)cc3)c2n1 [Example 1, Methyl [4-({[3-(6-amino-2-butoxy-8-oxo-7,8-dihydro-9H-purin-9-yl)propyl][3-(piperidin-1-yl)propyl]amino}methyl)phenyl]acetate] | 0.251 | 4.1-4.4 % w/w | > 3.02 | 0.468 | > 3.02 | > 3.02 | > 3.02 | 55 | 4.8 ± 0.8 | 87 | 1.9 ± 0.8 | 36
2 | CCCCOc1nc(N)c2[nH]c(=O)n(CCCN(CCCN3CCCCC3)Cc3cccc(CC(=O)OC)c3)c2n1 [Comparative Example 1, Methyl [3-({[3-(6-amino-2-butoxy-8-oxo-7,8-dihydro-9H-purin-9-yl)propyl][3-(piperidin-1-yl)propyl]amino}methyl)phenyl]acetate, reference compound] | 0.158 |  | > 30.2 | 0.0132 | 13.5 | > 30.2 | > 29.5 |  |  |  |  | 12
